Laboratory results published in patent US3954793A, “1-(2-Propynyl)-1 H-indazole compounds” (priority 1973, dated 1976).

What was measured:
[1] = tested on: Wilson strain house flies; type: in vivo, Wilson strain (susceptible); conditions: for Contact Synergistic Ratio, Pyrolan: LC50 pyrolan alone / LC50 with synergist, synergist to insecticide 5:1 by weight; for Contact Synergistic Ratio, Carbaryl: in vivo
Outline: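 Wilson strain house flies held at room temperature in glass jars coated with acetone-deposited insecticide film, alone or with synergist at 5:1 synergist:insecticide by weight.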

[2] = tested on: polyvalent resistant (CH strain) houseflies; assay: whole plant or invertebrate; type: in vivo; conditions: CH strain
Method: The effect of O-(2-propynyl) oximes with Dimetilan and with GS 13798 was obtained from tests on polyvalent resistant (CH strain) houseflies that had been chilled and to the dorsal region of which was applied an acetone solution of synergist and insecticide at a ratio of two to one. Duplicate tests were performed using 10 four to five-day old female houseflies per test. After dosage, the flies were put in a plastic petri dish with cotton soaked in a sugar-water solution. These doses of insecticide used without synergist caused 10-40% mortality.
In Table IX, and in the tables following it, the doses of topically applied insecticides and of synergists unless otherwise noted are expressed as micrograms per fly (μg/fly).
The effect of compounds II-C, II-D and II-E with Dimetilan and GS 13798 was determined, following the procedure of Example 5, from tests on polyvalent resistant (CH strain) houseflies. These doses of insecticide used without synergist caused 10-40% mortality.
The synergistic effect with GS 13005 of compounds I-A, I-B, I-D, I-E, I-F, I-G and I-I was determined from topical application tests to IN/WHO strain, Rutgers A strain and polyvalent CH strain houseflies using the procedures of Example 5. The percent kills of the IN/WHO strain flies after 24 hours are shown in Table XXVIII; of the Rutgers A strain, in Table XXIX; and of the polyvalent CH strain, in Table XXX. The doses of insecticide alone to the CH strain files caused 10-40% mortality.
The synergistic effect with Diazinon and GS 13005 of various of the benzyl 2-propynyl ethers identified in Tables II and IIa was determined by topical application tests on IN/WHO strain, and Rutgers A strain and polyvalent, resistant, CH strain houseflies using the procedures of Example 5. The percent kills after 24 hours of IN/WHO strain flies are shown in Table XXXI; of Rutgers A strain flies, in Table XXXII; and of CH strain flies, in Table XXXIII. The doses of insecticide alone to the CH strain flies caused 10-40% mortality.
The synergistic effect with pyrethrum of various synergist compounds was determined by topical application tests on polyvalent, resistant CH strain houseflies following the procedure of Example 5. Application of the insecticide alone caused 10-40% mortality.

[3] = tested on: Swiss albino, white male mice; assay: acute toxicity and synergism of acute toxicity in mice; type: in vivo; conditions: for number of mice dead, with Dimetilan: 48 hours; for number of mice dead, with Dimetilan / number of mice dead, synergist alone: eight mice; for number of mice dead, with GS 13005: GS 13005 71 + synergist 213 mg/kg; for number of mice dead, with Methadone: Methadone 32 + synergist 215 mg/kg; for number of mice dead, with Secobarbital: Secobarbital 90 + synergist 215 mg/kg; for number of mice dead, synergist alone: synergist 1000 mg/kg i.p., Dimetilan 0, 72 hours
Outline: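 Male Swiss albino mice (23 to 27 g, five to six weeks), eight per dose, dosed intraperitoneally in corn oil: dimetilan alone at 4 to 32 mg per kg, synergists alone at 1000 mg/kg with deaths counted at 72 hours. For synergism, synergist given 1 hour before insecticide, lethality observed for at least 6 hours.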

[4] = tested on: German male cockroaches (Blatella Germanicus); assay: topical application to thorax, 24 hour mortality of German male cockroaches; type: in vivo; conditions: for percent insect mortality, synergist alone (mobam test doses): synergist doses of Table XXXX; for percent insect mortality, synergist alone (mobam test doses) / percent insect mortality, synergist alone (GS 13005 test doses): no insecticide; for percent insect mortality, synergist alone (GS 13005 test doses): synergist doses of Table XXXXI
Method: The synergistic effect with mobam of synergist compounds I-B, II-H, II-K and IV-C is further illustrated by the 24 hour mortality data of German male cockroaches (Blatella Germanicus) shown in Table XXXX. The synergists and insecticide were diluted in acetone and applied in small droplets to the thorax of the insect. These doses of synergist alone gave zero percent insect mortality.
The synergistic effect with GS 13005 of compounds I-B, II-H, II-K, II-P, II-Q, II-R and IV-C is illustrated by the 24 hour mortality of German male cockroaches shown in Table XXXXI. These doses of synergist alone caused zero percent insect mortality.

[5] = Dimetilan 8 + synergist 240 mg/kg i.p.
[6] = GS 13005 dose 0.08 + synergist 0.40, pretreated with synergist two hours before insecticide
[7] = Mobam dose 0.12 + synergist 0.60, pretreated with synergist two hours before insecticide
[8] = Dimetilan 8 + synergist 80 mg/kg i.p.
[9] = GS 13005 dose 0.08 + synergist 4.0, cockroaches

SMILES | Contact Synergistic Ratio, Pyrolan [1] | Contact Synergistic Ratio, Carbaryl [1] | percent kill after 24 hours, with GS 13005 ([2]; GS 13005 1 + synergist 2 μg/fly) [%] | percent kill after 24 hours, with GS 13798 ([2]; GS 13798 1 + synergist 2 μg/fly) [%] | mortality at 10 µg/fly ([2]; Musca domestica, topical, 24 h, insecticide 0, synergist 10 μg/fly, read-out: percent kill after 24 hours, synergist alone) [%] | percent kill after 24 hours, synergist alone ([2]; insecticide 0, synergist 10 μg/fly) [%] | number of mice dead, with Dimetilan [3, 5] | 24 hour mortality, with GS 13005 [4, 6] [%] | 24 hour mortality, with Mobam [4, 7] [%] | percent insect mortality, synergist alone (mobam test doses) [4] | percent insect mortality, synergist alone (GS 13005 test doses) [4] | number of mice dead, with Dimetilan [3, 8] | number of mice dead, with GS 13005 [3] | number of mice dead, with Methadone [3] | number of mice dead, with Secobarbital [3] | number of mice dead, synergist alone [3] | 24 hour mortality, with GS 13005 [4, 9] [%] | 24 hour mortality, with Mobam ([4]; Mobam dose 0.16 + synergist 0.80, cockroaches) [%]
C#CCOCc1c(Cl)ccc(Cl)c1Cl [II-E] | 20 | 120 | 100 | 100 | 10 | 10 | 0 | – | – | – | – | – | – | – | – | – | – | –
C#CCOCc1cc(Cl)c(Cl)cc1Cl [II-F] | 15 | 150 | – | – | – | – | 0 | – | – | – | – | – | – | – | – | – | – | –
C#CCOCc1c(Cl)cccc1Cl [II-H] | 40 | 300 | – | – | – | – | 6 | 100 | 90 | zero | zero | 0 | 7 | 4 | 0 | 0 | – | –
C#CCOCc1c(Cl)cccc1[N+](=O)[O-] [II-K] | – | – | – | – | – | – | 6 | 100 | 100 | zero | zero | 0 | 3 | 2 | 1 | 1 | – | –
C#CCOCc1ccccc1[N+](=O)[O-] [II-P, 2-nitrobenzyl 2-propynyl ether] | – | – | – | – | – | – | 0 | 90 | – | – | zero | – | 6 | 0 | 0 | 2 | 60 | –
C#CCOCc1ccc([N+](=O)[O-])cc1 [II-Q, 4-nitrobenzyl 2-propynyl ether] | – | – | – | – | – | – | 1 | 95 | – | – | zero | – | 6 | – | – | 7 | – | –
C#CCOCc1cccc2ccccc12 [II-R, α-napthylmethyl 2-propynyl ether] | – | – | – | – | – | – | 2 | 100 | – | – | zero | 0 | – | – | – | – | – | –
C#CCOC(c1ccc(Cl)cc1)C(C)[N+](=O)[O-] (stereo not drawn) [IV-C] | – | – | – | – | – | – | 7 | 90 | 60 | zero | zero | 5 | – | – | – | – | 30 | 40
